This note sets out measurements from ChEMBL document CHEMBL3396995, “Synthesis and biological evaluation of novel pyrrolidine acid analogs as potent dual PPARα/γ agonists” (Bioorg Med Chem Lett, 2015).

In assay [1] the target is T1, Peroxisome proliferator-activated receptor alpha (Homo sapiens, UniProt Q07869).
T1 sequence (Q07869 whole entry): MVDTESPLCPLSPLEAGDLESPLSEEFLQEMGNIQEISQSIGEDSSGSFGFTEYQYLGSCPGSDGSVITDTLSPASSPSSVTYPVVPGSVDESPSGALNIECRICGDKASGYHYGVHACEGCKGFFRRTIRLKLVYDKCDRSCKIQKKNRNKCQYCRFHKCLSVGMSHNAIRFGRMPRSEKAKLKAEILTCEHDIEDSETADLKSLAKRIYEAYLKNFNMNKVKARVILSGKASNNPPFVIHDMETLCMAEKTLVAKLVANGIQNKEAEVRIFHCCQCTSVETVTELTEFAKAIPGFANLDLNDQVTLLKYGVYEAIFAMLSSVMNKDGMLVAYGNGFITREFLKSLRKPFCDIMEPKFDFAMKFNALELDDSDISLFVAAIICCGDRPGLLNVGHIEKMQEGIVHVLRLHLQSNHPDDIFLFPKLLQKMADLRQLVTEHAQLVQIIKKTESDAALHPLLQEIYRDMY
In words: Binding affinity to PPARalpha (unknown origin) using fluorescein-tagged dual PPARalpha/gamma activator by homogeneous fluorescence polarization binding assay.

Assay [2] concerns the target T2, Peroxisome proliferator-activated receptor gamma (Homo sapiens, UniProt P37231).
T2 sequence (P37231 whole entry): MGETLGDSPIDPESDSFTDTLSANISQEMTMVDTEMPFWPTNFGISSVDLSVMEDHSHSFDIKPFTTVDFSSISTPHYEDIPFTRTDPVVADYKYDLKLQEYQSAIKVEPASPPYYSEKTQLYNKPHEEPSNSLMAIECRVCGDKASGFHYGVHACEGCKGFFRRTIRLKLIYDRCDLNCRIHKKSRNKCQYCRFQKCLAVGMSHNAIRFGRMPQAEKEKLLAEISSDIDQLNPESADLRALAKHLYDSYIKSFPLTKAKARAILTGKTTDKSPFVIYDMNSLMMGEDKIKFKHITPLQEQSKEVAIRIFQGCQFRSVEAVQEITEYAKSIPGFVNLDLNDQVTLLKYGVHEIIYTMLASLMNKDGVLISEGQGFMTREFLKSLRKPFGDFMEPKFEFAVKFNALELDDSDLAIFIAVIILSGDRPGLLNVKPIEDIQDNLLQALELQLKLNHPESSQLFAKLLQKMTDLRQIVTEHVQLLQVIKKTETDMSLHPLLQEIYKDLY
Briefly: Agonist activity at GAL4 tagged human PPARgamma ligand binding domain expressed in HEK293 cells by luciferase reporter gene assay. The class given is cell-based.

The target of assay [3] is T2, Peroxisome proliferator-activated receptor gamma.
Description: (§1) Binding affinity to PPARgamma (unknown origin) using fluorescein-tagged dual PPARalpha/gamma activator by homogeneous fluorescence polarization binding assay
The target in assay [4] is T1, Peroxisome proliferator-activated receptor alpha. Briefly: Agonist activity at GAL4 tagged human PPARalpha ligand binding domain expressed in HEK293 cells by luciferase reporter gene assay. In kind it is cell-based. Conditions: read-out: EC50.
Assay [5] addresses T2, Peroxisome proliferator-activated receptor gamma. The source holds these as a separate data set.
Description: as §1
For assay [6], the system named is Mus musculus. Briefly: Antidiabetic activity in db/db mouse assessed as reduction in fasting glucose level at 10 mg/kg, po dosed once daily for 14 days. The class given is functional. Conditions: 336 h.
The subject of assay [7] is Mus musculus. In words: Lipid lowering activity in db/db mouse assessed as reduction in fasting triglyceride level at 10 mg/kg, po dosed once daily for 14 days. Conditions: 336 h. The class given is functional.

Bounds are passed on as bounds.

For `Cc1oc(-c2ccccc2)nc1CCOc1ccc(C[C@@H]2CN(C(=O)Oc3ccccc3)C[C@@H]2C(=O)O)cc1` (racemic), the IC50 amounted to 610 nM in assay [1] and 80 nM in assay [3]. Moreover, the results for the EC50 in assay [2] and in assay [4] were 640 nM and 1 nM, respectively.

For the molecule `CCOC(=O)N1C[C@H](C(=O)O)[C@H](c2ccc(OCCc3nc(-c4ccccc4)oc3C)cc2)C1` (racemic), the IC50 in assay [5] and in assay [1] was above 10000 nM each time. Moreover, the EC50 in assay [2] is above 32000 nM; in assay [4], above 15000 nM.

Turning to `Cc1oc(-c2ccccc2)nc1CCOc1cccc([C@@H]2CN(C(=O)Oc3ccccc3)C[C@@H]2CC(=O)O)c1` (racemic), the IC50 in assay [5] was found to be 240 nM; in assay [1], 4020 nM. Besides, the EC50 in assay [2] came out at 4800 nM; in assay [4], 3550 nM.

Consider `Cc1oc(-c2ccccc2)nc1CCOc1cccc(C[C@H]2CN(C(=O)Oc3ccccc3)C[C@@H]2C(=O)O)c1` (racemic), for which the IC50 in assay [5] is 3630 nM; in assay [1], 3090 nM. The EC50 was found to be 6170 nM in assay [2] and 2590 nM in assay [4].

In the case of `Cc1oc(-c2ccccc2)nc1CCOc1ccc(C[C@@H]2CN(c3nc(C(F)(F)F)co3)C[C@@H]2C(=O)O)cc1` (racemic), the IC50 in assay [5] is 50 nM; in assay [1], 5010 nM. Besides, the EC50 was above 30000 nM in assay [2] and 1470 nM in assay [4].

As to `Cc1oc(-c2ccccc2)nc1CCOc1cccc(C[C@@H]2CN(c3nccc(C(F)(F)F)n3)C[C@@H]2C(=O)O)c1`, the IC50 in assay [5] is 40 nM; in assay [1], 20 nM. In addition, the EC50 stood at 2500 nM in assay [2] and 14 nM in assay [4].

Take `CCOC(=O)N1C[C@H](C(=O)O)[C@H](c2cccc(OCCc3nc(-c4ccccc4)oc3C)c2)C1` (racemic): the IC50 in assay [5] and in assay [1] was above 10000 nM throughout. The EC50 is 24000 nM in assay [2] and 20000 nM in assay [4].

Consider `Cc1oc(-c2ccccc2)nc1CCOc1cccc(C[C@@H]2CN(C(=O)Oc3ccccc3)C[C@@H]2C(=O)O)c1`, for which the IC50 was found to be 490 nM in assay [5] and 70 nM in assay [1]. The half-maximal effective concentration (EC50) in assay [2] came to 2000 nM; in assay [4], 4 nM.

As to `Cc1oc(-c2ccccc2)nc1CCOc1ccc(C[C@@H]2CN(c3ncccn3)C[C@@H]2C(=O)O)cc1` (racemic), the values for the IC50 in assay [5] and in assay [1] were 2040 nM and above 10000 nM, respectively. Moreover, the concentration giving a half-maximal response (EC50) in assay [2] stood at 1060 nM; in assay [4], 2910 nM.

In the case of `CCOC(=O)N1C[C@H](CCc2ccc(OCCc3nc(-c4ccccc4)oc3C)cc2)[C@@H](C(=O)O)C1` (racemic), the IC50 in assay [5] was found to be 1590 nM; in assay [1], 1810 nM. The EC50 was above 10000 nM in assay [2] and 10 nM in assay [4].

As to `Cc1oc(-c2ccccc2)nc1CCOc1ccc(C[C@@H]2CN(c3nccc(C(F)(F)F)n3)C[C@H]2C(=O)O)cc1`, the concentration for half-maximal inhibition (IC50) in assay [5] is 1160 nM; in assay [1], above 50000 nM. The EC50 in assay [2] is above 30000 nM; in assay [4], 4410 nM.

Take `Cc1oc(-c2ccccc2)nc1CCOc1cccc([C@H]2CN(C(=O)Oc3ccccc3)C[C@@H]2CC(=O)O)c1` (racemic): the IC50 in assay [5] is 1820 nM; in assay [1], above 10000 nM. For the same molecule, the EC50 turned out to be 14600 nM in assay [2] and 11700 nM in assay [4].

In the case of `Cc1oc(-c2ccccc2)nc1CCOc1ccc(C[C@@H]2CN(c3nccc(C(F)(F)F)n3)C[C@@H]2C(=O)O)cc1` (racemic), the values for the IC50 in assay [5] and in assay [1] were 30 nM and 740 nM, respectively. Further, the figures for the EC50 in assay [2] and in assay [4] were 50 nM and 30 nM, respectively.

Turning to `Cc1oc(-c2ccccc2)nc1CCOc1ccc(C[C@H]2CN(c3nccc(C(F)(F)F)n3)C[C@H]2C(=O)O)cc1`, the values for the IC50 in assay [5] and in assay [1] were 1530 nM and above 10000 nM, respectively. Moreover, the EC50 in assay [2] and in assay [4] was above 10000 nM each time.

With `CCOC(=O)N1C[C@@H](CCc2ccc(OCCc3nc(-c4ccccc4)oc3C)cc2)[C@@H](C(=O)O)C1` (racemic), the 50% inhibitory concentration (IC50) worked out at 690 nM in assay [5] and 3270 nM in assay [1]. Besides, the EC50 amounted to 540 nM in assay [2] and 20 nM in assay [4].

For `Cc1oc(-c2ccccc2)nc1CCOc1cccc(C[C@@H]2CN(c3ccccc3)C[C@@H]2C(=O)O)c1`, the IC50 in assay [5] worked out at 80 nM; in assay [1], 70 nM. In addition, the EC50 in assay [2] came to 3440 nM; in assay [4], 50 nM.

Turning to `Cc1oc(-c2ccccc2)nc1CCOc1ccc(C[C@@H]2CN(c3nc4ccccc4o3)C[C@@H]2C(=O)O)cc1` (racemic), the IC50 in assay [5] stood at 590 nM; in assay [1], 2190 nM. For the same molecule, the EC50 in assay [2] amounted to 2080 nM; in assay [4], 2480 nM.

With `Cc1oc(-c2ccccc2)nc1CCOc1ccc(CC[C@@H]2CN(C(=O)Oc3ccccc3)C[C@@H]2C(=O)O)cc1` (racemic), the IC50 came out at 90 nM in assay [5] and 480 nM in assay [1]. Besides, the results for the EC50 in assay [2] and in assay [4] were 160 nM and 10 nM, respectively.

With `CCOC(=O)N1C[C@H](CC(=O)O)[C@H](c2cccc(OCCc3nc(-c4ccccc4)oc3C)c2)C1` (racemic), the 50% inhibitory concentration (IC50) amounted to 910 nM in assay [5] and 990 nM in assay [1]. The EC50 came to 20 nM in assay [2] and 1130 nM in assay [4].

As for `Cc1oc(-c2ccccc2)nc1CCOc1cccc(C[C@H]2CN(C(=O)Oc3ccccc3)C[C@@H]2CC(=O)O)c1` (racemic), the figures for the IC50 in assay [5] and in assay [1] were 210 nM and 3090 nM, respectively. Besides, the concentration giving a half-maximal response (EC50) was above 10000 nM in assay [2] and 850 nM in assay [4].

On to `Cc1oc(-c2ccccc2)nc1CCOc1cccc(C[C@@H]2CN(C(=O)Oc3ccccc3)C[C@@H]2C(=O)O)c1` (racemic), for which the IC50 was found to be 1330 nM in assay [5] and 220 nM in assay [1]. Moreover, the EC50 was determined as 1250 nM in assay [2] and 10 nM in assay [4].

On to `Cc1oc(-c2ccccc2)nc1CCOc1ccc(C[C@@H]2CN(C(=O)Oc3ccccc3)C[C@@H]2C(=O)O)cc1`, for which the IC50 in assay [5] was found to be 80 nM; in assay [1], 180 nM. For the same molecule, the EC50 turned out to be 30 nM in assay [2] and 5 nM in assay [4]. In addition, the figures for the inhibition in vivo at 10 mg/kg in assay [6] and in assay [7] were 30% and 12%, respectively.

As for `CCOC(=O)N1C[C@@H](Cc2ccc(OCCc3nc(-c4ccccc4)oc3C)cc2)[C@@H](C(=O)O)C1` (racemic), the 50% inhibitory concentration (IC50) in assay [5] stood at 2680 nM; in assay [1], 2020 nM. In addition, the EC50 in assay [2] came to 300 nM; in assay [4] it was 6 nM.

`Cc1ccnc(N2C[C@@H](Cc3ccc(OCCc4nc(-c5ccccc5)oc4C)cc3)[C@@H](C(=O)O)C2)n1` (racemic): the concentration for half-maximal inhibition (IC50) in assay [5] stood at 450 nM; in assay [1], 3980 nM. The EC50 is 630 nM in assay [2] and 170 nM in assay [4].

Regarding `Cc1oc(-c2ccccc2)nc1CCOc1ccc([C@H]2CN(C(=O)Oc3ccccc3)C[C@@H]2C(=O)O)cc1` (racemic), the IC50 is 5860 nM in assay [5] and 2860 nM in assay [1]. Moreover, the EC50 was 10 nM in assay [2] and 2580 nM in assay [4].

For the molecule `Cc1oc(-c2ccccc2)nc1CCOc1cccc(C[C@H]2CN(c3nccc(C(F)(F)F)n3)C[C@H]2C(=O)O)c1`, the results for the IC50 in assay [5] and in assay [1] were 110 nM and 1120 nM, respectively. For the same molecule, the EC50 in assay [2] and in assay [4] was above 10000 nM each time.

For the molecule `Cc1oc(-c2ccccc2)nc1CCOc1cccc(CC[C@H]2CN(C(=O)Oc3ccccc3)C[C@@H]2C(=O)O)c1` (racemic), the IC50 in assay [5] is 520 nM; in assay [1] it was above 10000 nM. Moreover, the EC50 came out at 1170 nM in assay [2] and 2600 nM in assay [4].

Consider `CCOC(=O)N1C[C@H](C(=O)O)[C@@H](c2ccc(OCCc3nc(-c4ccccc4)oc3C)cc2)C1` (racemic), for which the IC50 in assay [5] and in assay [1] was above 10000 nM throughout. Besides, the values for the EC50 in assay [2] and in assay [4] were above 32000 nM and above 15000 nM, respectively.

Take `Cc1oc(-c2ccccc2)nc1CCOc1ccc(CC[C@H]2CN(C(=O)Oc3ccccc3)C[C@@H]2C(=O)O)cc1` (racemic): the values for the IC50 in assay [5] and in assay [1] were 340 nM and 3250 nM, respectively. Also, the EC50 was above 10000 nM in assay [2] and 980 nM in assay [4].

Turning to `Cc1oc(-c2ccccc2)nc1CCOc1cccc(CC[C@@H]2CN(C(=O)Oc3ccccc3)C[C@@H]2C(=O)O)c1` (racemic), the IC50 in assay [5] amounted to 210 nM; in assay [1], 1060 nM. The concentration for a half-maximal effect (EC50) came out at 630 nM in assay [2] and 8 nM in assay [4].
